Experimental data from patent US12509421B2, “Preparation and application of deuterated 4-phenyl-4-piperidinols” (priority 2022, dated 2025).
Counter-ions that a name gives are not always drawn. Like-named read-outs stand apart in the source and are kept apart here.

What was measured:
hERG potassium channel = hERG potassium channel (Homo sapiens, UniProt Q12809); assay: hERG potassium channel whole-cell patch clamp (HEK293); type: cell-based; set-up: expressed in transfected cells; host or cells: HEK293 cell line; conditions: for IC50: HEK293 cells stably expressing hERG, whole-cell patch clamp, room temperature, read-out: Half-inhibition concentration of compounds to be tested on hERG (IC50)
Excerpt: The rapidly activated potassium channel encoded by human ether-a-go-go-related gene (hERG) is an important ion channel involved in the formation of phase 3 repolarization of myocardial action potential. […] Drug-induced delayed ventricular repolarization may cause fatal arrhythmia-torsade de pointes in some cases. According to statistics, about 25-40% of the lead compounds show different degrees of hERG-related toxicity, and many drugs are withdrawn from the market because they may lead to the risk of QT interval extension. At present, National Medical Products Administration also requires hERG/IKr safety evaluation data before clinical trial application (IND) of new drugs under study. • 1. Whole-cell patch clamp technique is used to study the inhibitory effect of compounds on hERG potassium channels: • 1) the compound to be tested is stored with physiological saline prepared into 10 mM liquid. The test stock solution is diluted with physiological saline into 3 mM, 1 mM and 0.3 mM diluents in turn. […] The old culture medium removed and is washed once with PBS, then added with 1 mL TrypLE™ Express solution and incubated at 37° C. for about 0.5 minutes. When the cells are detached from the bottom of the dish, about 5 ml complete medium preheated is added at 37° C. The cell suspension is gently blown with a straw to separate the aggregated cells. The cell suspension is transferred to a sterile centrifuge tube and centrifuged at 1000 rpm for 5 minutes to collect cells. […] The clamping voltage is depolarized from −80 mV to −50 mV for 0.5 seconds (as leakage current detection), then stepped to 30 mV for 2.5 seconds, and then quickly recovered to −50 mV for 4 seconds, which can excite the tail current of hERG channel. Data are collected repeatedly every 10s to observe the effect of drugs on hERG tail current. 0.5 seconds-50 mV stimulation is used as leakage current detection. The test data are collected by IPA amplifier (Sutter Instrument) and stored in SutterPatch software.
Capillary glass tube is drawn into recording electrode by microelectrode drawing instrument. Under the inverted microscope, the microelectrode manipulator is operated to contact the recording electrode with the cell, and negative pressure suction is given to form a GΩ seal. After the GΩ seal is formed, rapid capacitance compensation is carried out, and then negative pressure is continuously applied to break the cell membrane, forming a whole cell recording mode. Then the slow capacitance is compensated and the film capacitance and series resistance are recorded. No leakage compensation is given.
When the hERG current recorded in the whole cell is stable, the drug is administered, and the next concentration is detected after each drug concentration acts for 5 minutes (or the current is stable), and multiple concentrations are detected for each test compound. The cover glass covered with cells is placed in the recording bath in an inverted microscope, and the test compound and the external liquid containing no compound flowed through the recording bath from low concentration to high concentration by gravity perfusion method, so as to act on the cells, and liquid exchange is carried out by using a vacuum pump during recording. The current detected by each cell in the external fluid without compounds is used as its own control group.
At least two cells are used to detect each concentration independently and repeatedly twice. All electrophysiological tests are conducted at room temperature.
Firstly, the current after each drug concentration and the blank control current are standardized
[formula] followed by the calculation of the inhibition rate
[formula] corresponding to each drug concentration, the average and standard deviation for each concentration, and the semi-inhibition concentration of each compound with the following equation: […]
The dose-dependent effect is nonlinear fitted by the above equation, and IC50 is semi-inhibitory concentration.

κOR = target: T1, κOR (Homo sapiens, UniProt P41145); assay: Opioid receptor competitive binding test, κOR; conditions: [3H]-labeled ligand, CHO cell membranes, ± SD of three measurements; for κOR binding rate: compound at 10 μM
T1 construct: expressed in transfected cells; host or cells: CHO cells
Procedure: (§1) CHO cells expressing p opioid receptor, δ opioid receptor and K opioid receptor are cultured in a 10 cm^2 Petri dish (F-12 medium+10% newborn bovine serum) for several days, and the culture solution is sucked after the cells grew to the bottom of the dish. 3 ml PBS/EDTA solution (0.1M NaCl, 0.01M NaH2PO4, 0.04% EDTA) is added for digestion for 3-5 minutes. The cells are blown with a straw to get fall off completely, collected in a 40 ml centrifuge tube, centrifuged at 5000 rpm for 5 minutes, and removed with the supernatant. The centrifuge tube is added with ice-cold homogenate (50 mM HEPES PH 7.4, 3 mM MgCl2, 1 mM EGTA). The solution and precipitate are transferred to homogenizer for homogenization; Then the homogenate is transferred into a centrifuge tube, centrifuged at 18000 rpm for 15 minutes, and centrifuged twice; the obtained precipitate is added with an appropriate amount of buffer solution of 50 mM Tris-HCl and pH 7.4, homogenized and sub-packaged in centrifuge tubes. The product is stored in a refrigerator at −70° C. for later use.
(§2) 20-30 μg expressed membrane receptor protein and [3H]-labeled ligand (1-2 nM) are added to the total binding tube, added with 1 μM of corresponding ligand to the corresponding nonspecific binding tube. Various screened opioid ligand drugs (see the drug compounds in Table 1 below) are added to the sample tube with 100 μL final volume. The sample is incubated at 30° C. for 30 minutes, and the reaction is terminated in ice water. The glass fiber filter paper gF/C (whatman) is used for negative pressure filtration on Millipore sample collector. The sample is eluted with 4 ml 50 mm tris-HCl (pH 7.4) for three times, dried with the filter paper, put in 0.5 ml Eppendorf tube and added with 0.5 ml lipophilic scintillation liquid. The radioactive intensity is measured with PERKIN ELMER PRI-CARB 2910 liquid scintillation counter with calculation of the inhibition rate. The experiment is repeated for more than three times, with three compound tubes in each group. Inhibition rate(or binding rate)=(total binding rate dpm−sample tube dpm)/(total binding tube dpm-nonspecific binding tube dpm)×100%
(§3) IC50 is calculated with Prism 5.0 software. The Ki value is calculated according to the following formula: Ki=IC50/(1^+[L]/Kd), wherein [L] is the concentration of the added labeled ligand, and Kd is the equilibrium dissociation parameter of the labeled ligand.

δOR = target: T2, δOR (Homo sapiens, UniProt P41143); assay: Opioid receptor competitive binding test, δOR; conditions: [3H]-labeled ligand, CHO cell membranes, ± SD of three measurements; for δOR binding rate: compound at 10 μM
T2 construct: expressed in transfected cells; host or cells: CHO cells
Procedure: as §1, §2, §3

Female Kunming mice = assay: Hot plate analgesia test in mice; type: in vivo; conditions: 55° C. hot plate
Procedure: Female Kunming mice weighing about 20 g are placed on a hot plate instrument preheated to 55° C., and the latency of licking hind feet or lifting hind feet is used as the pain threshold index. Animals are screened before the experiment, and animals with latency less than 5 s or more than 30 s are excluded. To prevent foot burns, the longest observation time is set to 60s. The basic pain threshold is the average of two measurements, and the interval between the two measurements is 5 minutes. The pain threshold of mice in each group is determined at 15 minutes, 30 minutes, 60 minutes and 120 minutes after intraperitoneal administration. The effective percentage of analgesia (% MPE) is calculated according to the following formula
[formula] According to the effective percentage of analgesia, the ED50 value is calculated by graphpad prism 5.0 software.

μOR = target: T3, μOR (Homo sapiens, UniProt P35372); assay: Opioid receptor competitive binding test, μOR; conditions: [3H]-labeled ligand, CHO cell membranes, ± SD of three measurements; for μOR binding rate: compound at 10 μM
T3 construct: expressed in transfected cells; host or cells: CHO cells
Procedure: as §1, §2, §3

ICR mice = assay: Evaluation of side effects of constipation (defecation time, number, weight); type: in vivo; conditions: 7.5 mg/kg
Procedure: Constipation side effect is a common side effect of opioid drugs. This patent evaluates the possibility of constipation side effect by the influence of the compound on defecation time, defecation quantity and defecation weight of experimental animals.
ICR mice are randomly divided into 6 groups with 10 mice in each group after adaptive feeding. Fasting for 16-24 h, without stopping drinking, the blank control group is given solvent, during which the normal diet is: (1) the blank control group; (2) Compound diphenoxylate (7.5 mg/kg) group; (3) Low dose (1 mg/kg) group; (4) High dose (5 mg/kg) group of the compound to be tested.
After administration for 30 minutes, the mice in each group are given Chinese ink by gavage. After administration, the mice are kept in a single cage, and the excretion time of the first black stool is recorded. The number and weight (wet weight) of defecation particles in each mouse within 5 hours after administration are recorded. each group of mice are placed in an IVC cage with clean filter paper. The feces of each mouse are collected, put into a sterile 1.5 ml EP tube and stored in an ice box. During the collection, the number of defecation particles of each mouse is recorded, and the wet weight is weighed. After the collected feces are dried, the dry weight of the feces is recorded. Drying conditions: put fresh feces in an oven and bake at 100° C. for 5-10 minutes until the dry weight of feces is constant. The following formula is used to calculate the water content of feces, and the water content of feces (%)=(wet feces mass−dry feces mass)/wet feces mass×100%.
The data required for measurement and observation in this experiment are recorded in the corresponding table. All data are statistically processed by Microsoft Excel, and expressed as “mean standard error”. The data of each group are statistically analyzed by SPSS software package.

For “1-(4-hydroxy-4-(3-methoxyphenyl)-3-(((methyl-d3)amino)methyl)-1-piperidinyl)-2(2,4,5-trifluorophenyl)ethyl-1-one [I-5hydrochloride]”, the “hERG inhibition grade” value (hERG potassium channel) was “μM((Weak inhibition)”, the IC50 (hERG potassium channel) was 13.5 µM and the κOR binding rate (κOR) was 19.1 ± 1.2%. The δOR binding rate (δOR) was 12.5 ± 2.9%, the “ED50, hot plate” value (Female Kunming mice; intraperitoneal) was 0.75 mg/kg and the μOR binding rate (μOR) was 22.6 ± 1.7%.
With CCOC(=O)C1(c2ccccc2)CCN(CCC(C#N)(c2ccccc2)c2ccccc2)CC1 [Diphenoxylate, reference compound] the “Number of defecating animals” value (ICR mice; 10 mice per group, within 5 hours) was 10, the Defecation time (ICR mice; first black stool, x ± SE, only animals that defecate within 5 hours) was 148.4 ± 7.9 min and the “water content of feces” value (ICR mice; only animals that defecate within 5 hours, x ± SE) was 41.4 ± 3.7%. For the same compound, the Fecal weight (ICR mice; within 5 hours, x ± SE) was 0.3005 ± 0.0289 g.
Work on CN(C)C[C@@H]1CN(S(=O)(=O)Cc2ccccc2)CC[C@@]1(O)c1cccc(O)c1.Cl [Example 22 of CN201911076305.X, (3R, 4S)-1-(benzylsulfonyl)-3-(dimethylamino)methyl)-4-(3-hydroxyphenyl)-4-piperidinol hydrochloride, reference compound] yielded a Ki (κOR) of 0.0337 ± 0.00326 µM, a Ki (δOR) of 1.1 ± 0.042 µM and a Ki (μOR) of 0.00017 µM.
For CN(C)C[C@@H]1CN(S(=O)(=O)Cc2ccccc2)CC[C@@]1(O)c1cccc(O)c1.Cl [Example 22 of CN201911076305.X, reference compound], the “hERG inhibition grade” value (hERG potassium channel; listed as Example 22 of patent CN201911076305.X, hydrochloride) was “moderate inhibitory effects on hERG” and the “hERG inhibition grade” value (hERG potassium channel; listed as example 22 of the prior art of CN201911076305.X, hydrochloride) was “μM(Moderate intensity inhibition)”.
For [2H]C([2H])([2H])Oc1cccc(C2(O)CCN(S(=O)(=O)Cc3ccccc3)CC2CN(C)C([2H])([2H])[2H])c1 (centres unmarked) [I-2hydrochloride], the κOR binding rate (κOR) was 23.8 ± 1.9%, the δOR binding rate (δOR) was 10.9 ± 1.2% and the “Maximum analgesic effective percentage (% MPE), hot plate” value (Female Kunming mice; 10 mg/kg, intraperitoneal) was 100%. For the same compound, the μOR binding rate (μOR) was 24.75 ± 3.1%.
In the case of [2H]C([2H])([2H])Oc1cccc(C2(O)CCN(C(=O)Cc3cc(F)c(F)cc3F)CC2CN(C)C([2H])([2H])[2H])c1 (centres unmarked) [I-6hydrochloride], the κOR binding rate (κOR) is reported as 20.5 ± 2.3%, the δOR binding rate (δOR) is reported as 11.6 ± 1.7% and the “Maximum analgesic effective percentage (% MPE), hot plate” value (Female Kunming mice; 10 mg/kg, intraperitoneal) is reported as 100%. For the same compound, the μOR binding rate (μOR) was 21.0 ± 3.0%.
With [2H]C([2H])([2H])Oc1cccc([C@]2(O)CCN(S(=O)(=O)Cc3ccccc3)C[C@H]2CN(C)C([2H])([2H])[2H])c1 [II-6hydrochloride] the κOR binding rate (κOR) was 14.5 ± 3.1%, the δOR binding rate (δOR) was 10.5 ± 1.7% and the ED50 (Female Kunming mice; Mus musculus, ip, intraperitoneal) was 0.79 mg/kg. The μOR binding rate (μOR) was 28.4 ± 2.0%.
With [2H]C([2H])([2H])Oc1cccc([C@]2(O)CCN(C(=O)Cc3cc(F)c(F)cc3F)C[C@H]2CN(C)C([2H])([2H])[2H])c1 [II-12hydrochloride] the κOR binding rate (κOR) was 13.6 ± 1.9%, the δOR binding rate (δOR) was 12.0 ± 3.3% and the “Maximum analgesic effective percentage (% MPE), hot plate” value (Female Kunming mice; 10 mg/kg, intraperitoneal) was 100%. For the same compound, the μOR binding rate (μOR) was 26.3 ± 1.2%.
With COc1cccc(C2(O)CCCCC2CN(C)C)c1 (centres unmarked) [Tramadol, reference compound] the κOR binding rate (κOR) was 0%, the δOR binding rate (δOR) was 0% and the “Maximum analgesic effective percentage (% MPE), hot plate” value (Female Kunming mice; 50 mg/kg dosage) was 64.5% ((50 mg/kg/dosage). It also gave a μOR binding rate (μOR) of 6.0 ± 0.4%.
With “(3R,4S)-1-(benzylsulfonyl)-4-(3-hydroxyphenyl)-3-(((methyl(methyl-d3)amino)methyl)-4-piperidinol [II-2hydrochloride]” the “hERG inhibition grade” value (hERG potassium channel) was “μM((Weak inhibition)”, the IC50 (hERG potassium channel; listed as II-2) was 25.1 µM and the IC50 (hERG potassium channel; listed as Il-2hydrochloride) was 14.7 µM. For the same compound, the Ki (κOR) was 0.0256 ± 0.00272 µM, the Ki (δOR) was 0.482 ± 0.0284 µM and the Ki (μOR) was 0.00012 µM.
